{"source": "patent US20210116454A1", "about": "“METHODS FOR TREATING A HEMATOLOGICAL CANCER AND THE USE OF COMPANION BIOMARKERS FOR 2-(2,6-DIOXOPIPERIDIN-3-YL)-4-((2-FLUORO-4-((3-MORPHOLINOAZETIDIN-1-YL)METHYL)BENZYL)AMINO)ISOINDOLINE-1,3-DIONE” (CELGENE CORPORATION, priority 2019, published 2021)", "key": {"Farage CRBN^-/- cells": {"system": "Farage CRBN^-/- cells", "experiment": "Cell proliferation in CRBN^-/- (knock out) cells, 5 days", "format": "cell-based", "settings": "120 h", "description": "(§1) The activated B-cell (ABC) and MYC/BCL2 double expressor cell lines SU-DHL-2 and RIVA, the germinal center B-cell (GCB) and MYC/BCL2 double hit cell lines (and expressing BCL6) Karpas-422, SU-DHL-10, WSU-DLCL2, and the primary mediastinal B-cell lymphoma (PMBL) cell line Farage were infected with a CAS9 expressing lentivirus construct to generate the control CAS9 expressing cells. The Cas9 cells had wild type cereblon expression (CRBN^WT).\n(§2) To generate the cereblon knock out cells (CRBN^−/−), the individual control CAS9 cells were infected with a construct expressing a subgenomic single guide RNA (sgRNA). Western blot analysis confirmed the absence of cereblon protein in the CRBN^−/− cells, relative to the levels of the housekeeping protein β-tubulin. The CRBN^WT and CRBN^−/− cells were treated with increasing concentrations of Compound 1 for five days."}, "[1]": {"system": "Karpas-422 CRBN^-/- cells", "experiment": "Cell proliferation in CRBN^-/- (knock out) cells, 5 days", "format": "cell-based", "settings": "Homo sapiens, 120 h", "description": "as §1, §2"}, "RIVA CRBN^-/- cells": {"system": "RIVA CRBN^-/- cells", "experiment": "Cell proliferation in CRBN^-/- (knock out) cells, 5 days", "format": "cell-based", "settings": "120 h", "description": "as §1, §2"}, "SU-DHL10 CRBN^-/- cells": {"system": "SU-DHL10 CRBN^-/- cells", "experiment": "Cell proliferation in CRBN^-/- (knock out) cells, 5 days", "format": "cell-based", "settings": "Homo sapiens, 120 h", "description": "as §1, §2"}, "SU-DHL2 CRBN^-/- cells": {"system": "SU-DHL2 CRBN^-/- cells", "experiment": "Cell proliferation in CRBN^-/- (knock out) cells, 5 days", "format": "cell-based", "settings": "Homo sapiens, SU-DHL-2, 120 h", "description": "as §1, §2"}, "WSU-DLCL2 CRBN^-/- cells": {"system": "WSU-DLCL2 CRBN^-/- cells", "experiment": "Cell proliferation in CRBN^-/- (knock out) cells, 5 days", "format": "cell-based", "settings": "Homo sapiens, WSUDLCL2, 120 h", "description": "as §1, §2"}, "Aiolos": {"molecular_target": "T1, Aiolos (Homo sapiens, UniProt Q96SW2+Q9UKT9)", "T1 construct": "expressed in transfected cells; host or cells: DF15 cells", "T1 sequence (Q9UKT9 whole entry)": "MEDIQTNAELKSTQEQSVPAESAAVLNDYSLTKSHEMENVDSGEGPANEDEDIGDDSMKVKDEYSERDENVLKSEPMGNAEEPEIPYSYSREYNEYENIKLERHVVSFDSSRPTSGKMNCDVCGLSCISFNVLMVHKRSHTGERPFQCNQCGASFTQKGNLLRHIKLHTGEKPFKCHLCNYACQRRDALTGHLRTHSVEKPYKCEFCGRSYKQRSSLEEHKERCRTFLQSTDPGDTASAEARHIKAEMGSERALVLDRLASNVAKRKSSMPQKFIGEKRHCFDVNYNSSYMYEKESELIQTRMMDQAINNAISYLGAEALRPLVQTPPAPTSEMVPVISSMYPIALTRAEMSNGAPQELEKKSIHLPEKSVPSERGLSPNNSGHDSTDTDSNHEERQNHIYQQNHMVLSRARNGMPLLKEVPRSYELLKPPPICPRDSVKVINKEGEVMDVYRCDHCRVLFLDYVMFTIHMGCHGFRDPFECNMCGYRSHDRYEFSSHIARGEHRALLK", "T1 sequence (Q96SW2 whole entry)": "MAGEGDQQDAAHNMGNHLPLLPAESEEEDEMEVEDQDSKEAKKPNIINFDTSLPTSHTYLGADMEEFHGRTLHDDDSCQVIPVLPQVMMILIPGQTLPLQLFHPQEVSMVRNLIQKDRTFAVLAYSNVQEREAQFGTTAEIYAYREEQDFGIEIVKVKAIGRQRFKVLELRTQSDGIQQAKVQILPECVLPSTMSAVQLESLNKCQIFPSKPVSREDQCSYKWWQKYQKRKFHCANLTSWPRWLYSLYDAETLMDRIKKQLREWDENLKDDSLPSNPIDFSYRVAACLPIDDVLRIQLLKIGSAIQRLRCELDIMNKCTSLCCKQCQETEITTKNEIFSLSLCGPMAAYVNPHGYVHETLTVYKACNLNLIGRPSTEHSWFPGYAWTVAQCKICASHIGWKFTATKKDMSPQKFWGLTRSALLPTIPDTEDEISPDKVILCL", "T1 sequence (Q16531 whole entry partner)": "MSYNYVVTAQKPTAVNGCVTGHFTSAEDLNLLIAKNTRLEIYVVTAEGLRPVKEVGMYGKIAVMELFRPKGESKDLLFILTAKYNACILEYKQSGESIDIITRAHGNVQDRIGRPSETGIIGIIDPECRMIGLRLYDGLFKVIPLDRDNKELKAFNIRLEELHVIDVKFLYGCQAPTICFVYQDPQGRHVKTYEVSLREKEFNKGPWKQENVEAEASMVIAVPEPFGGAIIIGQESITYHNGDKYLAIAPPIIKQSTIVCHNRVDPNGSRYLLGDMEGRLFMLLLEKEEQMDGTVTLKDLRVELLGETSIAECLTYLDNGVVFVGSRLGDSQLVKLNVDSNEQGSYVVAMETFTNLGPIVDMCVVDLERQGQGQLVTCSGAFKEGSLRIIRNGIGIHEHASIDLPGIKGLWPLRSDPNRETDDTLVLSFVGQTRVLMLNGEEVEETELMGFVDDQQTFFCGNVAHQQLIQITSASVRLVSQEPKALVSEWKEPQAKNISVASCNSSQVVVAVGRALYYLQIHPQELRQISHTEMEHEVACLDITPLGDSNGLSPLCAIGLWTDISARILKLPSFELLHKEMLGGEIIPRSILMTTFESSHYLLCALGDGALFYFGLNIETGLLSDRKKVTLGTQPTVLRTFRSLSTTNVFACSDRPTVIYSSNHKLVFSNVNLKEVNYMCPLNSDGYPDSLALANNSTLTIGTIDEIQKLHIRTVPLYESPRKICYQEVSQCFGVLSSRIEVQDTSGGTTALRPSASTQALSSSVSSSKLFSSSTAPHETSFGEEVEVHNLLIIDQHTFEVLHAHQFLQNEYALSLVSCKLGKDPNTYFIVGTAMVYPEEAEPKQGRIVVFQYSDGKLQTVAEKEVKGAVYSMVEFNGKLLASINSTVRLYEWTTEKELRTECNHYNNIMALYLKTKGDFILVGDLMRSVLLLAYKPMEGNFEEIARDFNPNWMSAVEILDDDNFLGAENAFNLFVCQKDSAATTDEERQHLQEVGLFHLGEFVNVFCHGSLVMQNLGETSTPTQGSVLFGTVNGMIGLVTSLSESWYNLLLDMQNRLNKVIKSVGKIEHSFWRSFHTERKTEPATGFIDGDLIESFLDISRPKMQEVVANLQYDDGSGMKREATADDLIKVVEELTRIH", "experiment": "ePL-tagged substrate degradation kinetics in DF15 cells (enantiomer comparison)", "format": "cell-based", "design": "Aiolos Y-constant: scale not given here", "settings": "for DC50: read-out: Aiolos EC50", "method": "(§3) In a second assay, DF15 cell lines expressing ePL-tagged target protein substrates were used as a model system to monitor protein degradation at 0.75, 1, 1.5, 3, 4, and 24 hours over a concentration range from 1 pM to 10 μM. The proteins evaluated were Ikaros (FIG. 17), Aiolos, and ZFP91. Compound 1 and Compound 2 were both able to degrade the substrate proteins at all time points (Table 9). In a further assay, additional time points were included to monitor the effect of treatment with Compound 1 and Compound 2.\n(§4) The depth of substrate protein degradation described by the Y-constant was also measured in this assay against a negative control luciferase inhibitor (CC1071297, Y-constant=0)."}, "SU-DHL-2^CRBNWT cells": {"system": "SU-DHL-2^CRBNWT cells", "experiment": "Western blot time- and concentration-response of endogenous substrates", "format": "cell-based", "settings": "10 and 100 nM, entire course of treatment", "description": "However, Compound 1 had no activity in SU-DHL-2^CRBN−/− cells, indicating the requirement of cereblon for induction of apoptosis by Compound 1 in DLBCL (FIG. 5 C)."}, "LPS system": {"system": "LPS system", "experiment": "BioMAP LPS system (PBMCs and endothelial cells)", "format": "cell-based, human", "settings": "0.01, 0.1, 1, and 10 μM", "method": "The activity of Compound 1 was profiled in a panel of human primary cell-based assays, modeling complex tissue and disease biology of organs (vasculature, immune system, skin, lung) and general tissue biology using the BioMAP System (DiscoveRx, Fremont, Calif.).\nThe BioMAP System consists of twelve primary human monoculture or co-culture systems in stimulated and non-stimulated control conditions (FIG. 4, panel A). When tested at 0.01, 0.1, 1, and 10 μM, Compound 1 mediated changes in key biomarker activities. Specifically, the profiles for Compound 1 reflected selective anti-inflammatory and immunomodulatory impact on monocyte (LPS) and T cell dependent B cell activation responses (BT). Treatment with Compound 1 led to a decrease in interleukin 8 (IL-8), interleukin 1a (IL-1a), secreted prostaglandin E2 (sPGE2), and secreted tumor necrosis factor alpha (sTNFα) in the LPS system, which consisted of peripheral blood mononuclear cells (PBMCs) and endothelial cells. Furthermore, secreted IgG (sIgG), secreted interleukin 17A (sIL-17A), secreted interleukin 17F (sIL-17F), and sTNFα decreased, whereas secreted interleukin 2 (sIL-2) and secreted interleukin 6 (sIL-6) increased, in the BT system, which was comprised of B cells and PBMCs."}, "Ikaros [2]": {"molecular_target": "T2, Ikaros (Homo sapiens, UniProt Q13422+Q96SW2)", "T2 sequence (Q13422 whole entry)": "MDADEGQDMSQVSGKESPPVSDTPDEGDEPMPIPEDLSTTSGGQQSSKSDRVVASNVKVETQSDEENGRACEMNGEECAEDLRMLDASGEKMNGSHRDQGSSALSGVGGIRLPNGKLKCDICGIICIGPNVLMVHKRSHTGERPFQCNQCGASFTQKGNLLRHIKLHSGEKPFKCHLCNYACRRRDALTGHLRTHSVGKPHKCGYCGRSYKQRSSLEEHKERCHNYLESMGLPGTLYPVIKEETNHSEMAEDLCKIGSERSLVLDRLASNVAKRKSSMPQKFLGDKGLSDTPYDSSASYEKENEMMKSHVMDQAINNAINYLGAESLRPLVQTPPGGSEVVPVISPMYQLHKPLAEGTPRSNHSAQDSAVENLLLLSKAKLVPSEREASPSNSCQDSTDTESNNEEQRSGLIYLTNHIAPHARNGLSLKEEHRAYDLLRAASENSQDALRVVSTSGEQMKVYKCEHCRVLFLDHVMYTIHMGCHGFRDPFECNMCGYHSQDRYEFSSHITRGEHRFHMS", "T2 sequence (Q96SW2 whole entry)": "as the sequence (Q96SW2 whole entry) above", "T2 sequence (Q16531 whole entry partner)": "as the sequence (Q16531 whole entry partner) above", "experiment": "Ikaros protein level by flow cytometry during ex vivo myeloid differentiation", "format": "cell-based", "description": "Ikaros protein levels were monitored during periods of Compound 1 exposure and recovery. Ikaros levels were reduced during Compound 1 exposure and recovered following drug withdrawal in a concentration-dependent manner with no significant differences noted in association with different exposure schedules (FIG. 21; FIG. 22). Ikaros levels began returning to normal after at least 3 days following washout, predating full recovery of maturation of late-stage neutrophil precursors (FIG. 23). […] Accordingly, Ikaros levels in neutrophils can serve as a marker for response to Compound 1.\nIkaros protein level was analyzed by flow cytometry every two or three days. As shown in FIG. 21 and FIG. 22, Ikaros protein was degraded under both Compound 1 treatment schedules (14 days and 5 days) and its expression was restored after drug washout in a concentration dependent manner."}, "Ikaros [3]": {"molecular_target": "T2, Ikaros", "experiment": "Enzyme fragment complementation (EFC) degradation assay, DF15 cells expressing ePL-tagged substrate", "format": "cell-based", "design": "expressed in transfected cells; host or cells: DF15 cells", "settings": "for Emax: DF15, DF15 ePL-Ikaros, remaining substrate; for DC50: DF15 ePL-Ikaros, read-out: Ikaros degradation EC50"}, "Ikaros [4]": {"molecular_target": "T2, Ikaros", "experiment": "ePL-tagged substrate degradation kinetics in DF15 cells (enantiomer comparison)", "format": "cell-based", "design": "expressed in transfected cells; host or cells: DF15 cells; Ikaros Y-constant: scale not given here", "settings": "for DC50: read-out: Ikaros EC50", "method": "as §3, §4"}}, "note": "Like-named read-outs stand apart in the source and are kept apart here."}
{"smiles": "O=C1CC[C@H](N2C(=O)c3cccc(NCc4ccc(CN5CC(N6CCOCC6)C5)cc4F)c3C2=O)C(=O)N1", "note": "[Compound 1, (S)-2-(2,6-dioxopiperidin-3-yl)-4-((2-fluoro-4-((3-morpholinoazetidin-1-yl)methyl)benzyl)amino)isoindoline-1,3-dione]", "values": [{"measurement": "IC50", "setting": "Farage CRBN^-/- cells", "result": "> 10000", "unit": "nM"}, {"measurement": "IC50", "setting": "[1]", "result": "> 10000", "unit": "nM"}, {"measurement": "IC50", "setting": "RIVA CRBN^-/- cells", "result": "> 10000", "unit": "nM"}, {"measurement": "IC50", "setting": "SU-DHL10 CRBN^-/- cells", "result": "> 10000", "unit": "nM"}, {"measurement": "IC50", "setting": "SU-DHL2 CRBN^-/- cells", "result": "> 10000", "unit": "nM"}, {"measurement": "IC50", "setting": "WSU-DLCL2 CRBN^-/- cells", "result": "> 10000", "unit": "nM"}, {"measurement": "Aiolos Y-constant", "setting": "Aiolos; 0.75 hours", "result": 46}, {"measurement": "DC50", "setting": "Aiolos; 0.75 hours", "result": 0.73, "unit": "nM"}, {"measurement": "Aiolos Y-constant", "setting": "Aiolos; 1 hour", "result": 29}, {"measurement": "DC50", "setting": "Aiolos; 1 hour", "result": 0.94, "unit": "nM"}, {"measurement": "Aiolos Y-constant", "setting": "Aiolos; 1.5 hours", "result": 11}, {"measurement": "DC50", "setting": "Aiolos; 1.5 hours", "result": 0.72, "unit": "nM"}, {"measurement": "Aiolos Y-constant", "setting": "Aiolos; 3 hours", "result": 4.8}, {"measurement": "DC50", "setting": "Aiolos; 3 hours", "result": 0.6, "unit": "nM"}, {"measurement": "Aiolos Y-constant", "setting": "Aiolos; 4 hours", "result": 3.9}, {"measurement": "DC50", "setting": "Aiolos; 4 hours", "result": 0.56, "unit": "nM"}, {"measurement": "Aiolos Y-constant", "setting": "Aiolos; 24 hours", "result": 4.0}, {"measurement": "DC50", "setting": "Aiolos; 24 hours", "result": 0.52, "unit": "nM"}, {"measurement": "Ikaros, Aiolos, and ZFP91 protein expression", "setting": "SU-DHL-2^CRBNWT cells", "result": "complete suppression"}, {"measurement": "IL-8, IL-1a, sPGE2, and sTNFα", "setting": "LPS system", "result": "decrease"}, {"measurement": "recovery of Ikaros protein", "setting": "Ikaros [2]; Day 19, all concentrations, after 14 days of treatment", "result": "complete recovery"}, {"measurement": "time after washout at which Ikaros levels began returning to normal", "setting": "Ikaros [2]; neutrophil precursors, following washout", "result": "at least 3 days"}, {"measurement": "Emax", "setting": "Ikaros [3]; 1 hour", "result": 75.5, "unit": "%"}, {"measurement": "Emax", "setting": "Ikaros [3]; 2 hours", "result": 33, "unit": "%"}, {"measurement": "Emax", "setting": "Ikaros [3]; 6 hours", "result": 1.5, "unit": "%"}, {"measurement": "Emax", "setting": "Ikaros [3]; 24 hours", "result": 0.03, "unit": "%"}, {"measurement": "DC50", "setting": "Ikaros [3]; 1 hour", "result": 0.6, "unit": "nM"}, {"measurement": "DC50", "setting": "Ikaros [3]; 2 hours", "result": 0.8, "unit": "nM"}, {"measurement": "DC50", "setting": "Ikaros [3]; 6 hours", "result": 0.5, "unit": "nM"}, {"measurement": "DC50", "setting": "Ikaros [3]; 24 hours", "result": 0.4, "unit": "nM"}, {"measurement": "Ikaros Y-constant", "setting": "Ikaros [4]; 0.75 hours", "result": 39.3}, {"measurement": "DC50", "setting": "Ikaros [4]; 0.75 hours", "result": 1.25, "unit": "nM"}, {"measurement": "Ikaros Y-constant", "setting": "Ikaros [4]; 1 hour", "result": 27.5}, {"measurement": "DC50", "setting": "Ikaros [4]; 1 hour", "result": 1.01, "unit": "nM"}, {"measurement": "Ikaros Y-constant", "setting": "Ikaros [4]; 1.5 hours", "result": 12.5}, {"measurement": "DC50", "setting": "Ikaros [4]; 1.5 hours", "result": 0.96, "unit": "nM"}, {"measurement": "Ikaros Y-constant", "setting": "Ikaros [4]; 3 hours", "result": 8.6}, {"measurement": "DC50", "setting": "Ikaros [4]; 3 hours", "result": 0.81, "unit": "nM"}, {"measurement": "Ikaros Y-constant", "setting": "Ikaros [4]; 4 hours", "result": 6.8}, {"measurement": "DC50", "setting": "Ikaros [4]; 4 hours", "result": 0.99, "unit": "nM"}, {"measurement": "Ikaros Y-constant", "setting": "Ikaros [4]; 24 hours", "result": 2.6}, {"measurement": "DC50", "setting": "Ikaros [4]; 24 hours", "result": 0.35, "unit": "nM"}]}
